Test results as given in PubChem BioAssay (NCI).
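Step 1: Grow cells in 96-well plates. Step 2: Expose to compound for 48 hours at 5 concentrations. Step 3: Interpolate endpoints linearly; if unreached, use highest concentration. Definition used: TGI = concentration required for complete inhibition of growth.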

Assays:
Assay in all cases: growth of human tumour cells (NCI), 48 h
UACC-62 melanoma = system: UACC-62 melanoma
DU-145 prostate = system: DU-145 prostate
HOP-92 NSCLC = system: HOP-92 NSCLC
HL-60(TB) leukemia = system: HL-60(TB) leukemia
RXF 393 renal = system: RXF 393 renal
SK-OV-3 ovarian = system: SK-OV-3 ovarian
MDA-MB-231 breast = system: MDA-MB-231 breast
T-47D breast = system: T-47D breast
SNB-19 CNS = system: SNB-19 CNS
PC-3 prostate = system: PC-3 prostate
HT29 colon = system: HT29 colon
SK-MEL-2 melanoma = system: SK-MEL-2 melanoma
EKVX NSCLC = system: EKVX NSCLC
TK-10 renal = system: TK-10 renal
M14 melanoma = system: M14 melanoma
UACC-257 melanoma = system: UACC-257 melanoma
SF-268 CNS = system: SF-268 CNS
OVCAR-8 ovarian = system: OVCAR-8 ovarian
HCT-15 colon = system: HCT-15 colon
MALME-3M melanoma = system: MALME-3M melanoma
NCI-H23 lung = system: NCI-H23 lung
OVCAR-4 ovarian = system: OVCAR-4 ovarian
MCF7 breast = system: MCF7 breast
BT-549 breast = system: BT-549 breast
LOX IMVI melanoma = system: LOX IMVI melanoma
MDA-MB-435 = system: MDA-MB-435
K-562 leukemia = system: K-562 leukemia
RPMI-8226 leukemia = system: RPMI-8226 leukemia
786-0 renal = system: 786-0 renal
NCI/ADR-RES ovarian = system: NCI/ADR-RES ovarian
SN12C renal = system: SN12C renal
HS 578T breast = system: HS 578T breast
SR leukemia = system: SR leukemia
OVCAR-5 ovarian = system: OVCAR-5 ovarian
A498 renal = system: A498 renal
COLO 205 colon = system: COLO 205 colon
ACHN renal = system: ACHN renal
CAKI-1 renal = system: CAKI-1 renal
SNB-75 CNS = system: SNB-75 CNS
NCI-H226 lung = system: NCI-H226 lung
OVCAR-3 ovarian = system: OVCAR-3 ovarian
SF-539 CNS = system: SF-539 CNS
MDA-N = system: MDA-N
U251 CNS = system: U251 CNS
SW-620 colon = system: SW-620 colon
A549 NSCLC = system: A549 NSCLC
KM12 colon = system: KM12 colon
MOLT-4 leukemia = system: MOLT-4 leukemia
UO-31 renal = system: UO-31 renal
SF-295 CNS = system: SF-295 CNS
NCI-H522 lung = system: NCI-H522 lung
NCI-H460 lung = system: NCI-H460 lung
IGROV1 ovarian = system: IGROV1 ovarian
HCT-116 colon = system: HCT-116 colon
SK-MEL-28 melanoma = system: SK-MEL-28 melanoma
HOP-62 NSCLC = system: HOP-62 NSCLC
SK-MEL-5 melanoma = system: SK-MEL-5 melanoma
CCRF-CEM leukemia = system: CCRF-CEM leukemia

Measured: TGI

Clc1cccc(Cl)c1C(Nc1nncs1)Nc1nncs1
84.1 µM: TK-10 renal
68.5 µM: NCI-H460 lung
54.5 µM: SK-MEL-28 melanoma
70.9 µM: NCI-H522 lung
43.9 µM: HL-60(TB) leukemia
71.1 µM: UACC-257 melanoma
> 100 µM: UACC-62 melanoma | DU-145 prostate | HOP-92 NSCLC | RXF 393 renal | SK-OV-3 ovarian | MDA-MB-231 breast | T-47D breast | SNB-19 CNS | PC-3 prostate | HT29 colon | SK-MEL-2 melanoma | EKVX NSCLC | M14 melanoma | SF-268 CNS | OVCAR-8 ovarian | HCT-15 colon | MALME-3M melanoma | NCI-H23 lung | OVCAR-4 ovarian | MCF7 breast | BT-549 breast | LOX IMVI melanoma | K-562 leukemia | RPMI-8226 leukemia | 786-0 renal | NCI/ADR-RES ovarian | SN12C renal | HS 578T breast | SR leukemia | OVCAR-5 ovarian | A498 renal | COLO 205 colon | ACHN renal | CAKI-1 renal | SNB-75 CNS | OVCAR-3 ovarian | SF-539 CNS | U251 CNS | SW-620 colon | A549 NSCLC | KM12 colon | MOLT-4 leukemia | UO-31 renal | SF-295 CNS | IGROV1 ovarian | HCT-116 colon | HOP-62 NSCLC | SK-MEL-5 melanoma
60.6 µM: MDA-MB-435
99.7 µM: NCI-H226 lung
25.5 µM: MDA-N

CC(NC(=O)CNP(=O)(c1ccccc1)c1ccccc1)C(=O)NC(Cc1ccccc1)C(=O)OCc1ccccc1 (centres undefined)
48.5 µM: SNB-75 CNS
60.5 µM: SK-MEL-5 melanoma
42.5 µM: SF-295 CNS
51.3 µM: SK-OV-3 ovarian
57.2 µM: SF-268 CNS
> 10 µM: K-562 leukemia | COLO 205 colon | CCRF-CEM leukemia
55 µM: MCF7 breast
96.6 µM: MDA-MB-231 breast
75.5 µM: RXF 393 renal
87.8 µM: LOX IMVI melanoma
> 100 µM: UACC-62 melanoma | DU-145 prostate | HOP-92 NSCLC | HL-60(TB) leukemia | T-47D breast | SNB-19 CNS | PC-3 prostate | HT29 colon | SK-MEL-2 melanoma | EKVX NSCLC | TK-10 renal | M14 melanoma | UACC-257 melanoma | OVCAR-8 ovarian | HCT-15 colon | MALME-3M melanoma | NCI-H23 lung | BT-549 breast | MDA-MB-435 | NCI/ADR-RES ovarian | SN12C renal | HS 578T breast | OVCAR-5 ovarian | A498 renal | CAKI-1 renal | NCI-H226 lung | OVCAR-3 ovarian | SF-539 CNS | MDA-N | SW-620 colon | A549 NSCLC | KM12 colon | UO-31 renal | IGROV1 ovarian | HCT-116 colon | HOP-62 NSCLC
62.3 µM: U251 CNS
48.1 µM: 786-0 renal
49.3 µM: SK-MEL-28 melanoma
47.1 µM: MOLT-4 leukemia
98.5 µM: RPMI-8226 leukemia
70.8 µM: SR leukemia
49.8 µM: NCI-H522 lung

COC(=O)CCC(C)[C@H]1CCC2C3C(C[C@H](OC(C)=O)[C@@]21C)[C@@]1(C)CCC2(C[C@H]1C[C@H]3OC(C)=O)OOC1(CCCCCCC1)OO2 (some centres undefined)
50 µM: NCI-H226 lung
28.8 µM: UO-31 renal
> 100 µM: DU-145 prostate | HOP-92 NSCLC | HL-60(TB) leukemia | RXF 393 renal | SK-OV-3 ovarian | MDA-MB-231 breast | T-47D breast | SNB-19 CNS | PC-3 prostate | HT29 colon | SK-MEL-2 melanoma | EKVX NSCLC | TK-10 renal | M14 melanoma | UACC-257 melanoma | SF-268 CNS | OVCAR-8 ovarian | HCT-15 colon | MALME-3M melanoma | NCI-H23 lung | OVCAR-4 ovarian | MCF7 breast | BT-549 breast | LOX IMVI melanoma | MDA-MB-435 | K-562 leukemia | 786-0 renal | NCI/ADR-RES ovarian | SN12C renal | HS 578T breast | SR leukemia | OVCAR-5 ovarian | A498 renal | COLO 205 colon | ACHN renal | CAKI-1 renal | SNB-75 CNS | OVCAR-3 ovarian | SF-539 CNS | MDA-N | CCRF-CEM leukemia | U251 CNS | SW-620 colon | A549 NSCLC | KM12 colon | MOLT-4 leukemia | SF-295 CNS | NCI-H522 lung | NCI-H460 lung | IGROV1 ovarian | HCT-116 colon | SK-MEL-28 melanoma | SK-MEL-5 melanoma
6.21 µM: RPMI-8226 leukemia
52.7 µM: HOP-62 NSCLC
